Like-named read-outs stand apart in the source and are kept apart here.
Experiments:
[1] = system: rat thoracic aortic smooth muscle cells; assay type: cell-based; conditions: added to culture medium; final concentration: barium titanate 1 mg/mL, H2O2 15% (FIG. 6)
Description: A biological toxicity testing was conducted on barium titanate powders using rat thoracic aortic smooth muscle cells. Different additives were charged into cell culture media. After culture for a period of time, biological statistics was conducted. FIG. 6(a) illustrates a cell count in a standard medium as a function of cell culture time; FIGS. 6(b) and 6(c) illustrate results after addition of barium titanate powders (final concentration: 1 mg/mL) and 30% H2O2 (final concentration: 15%) in a culture medium, respectively; FIG. 6(d) illustrates mathematical statistics of results of every day.

[2] = after whitening for the same time period, SEM (FIG. 7)

SMILES: OO [H2O2, hydrogen peroxide]
- effect on cell growth and proliferation (cell count versus culture time) [1]: almost all cells in the medium die
- damage to the tooth surface / enamel [2]: damages the tooth surface seriously
- damage to the tooth surface / enamel ([2]; listed as 30% H2O2): causes non-ignorable damage to the enamel on the tooth surface

— patent publication US20210052358A1, “TEETH WHITENING PRODUCT CONTAINING PIEZOELECTRIC MATERIAL” (Nanjing University of Science & Technology, priority 2019, published 2021)
